According to the supplement of paper PMC11061612:

Assays:
Carboplatin = compound: C1CC(C1)(C(=O)[O-])C(=O)[O-].N.N.[Pt+2] [Carboplatin]; details: max 10 µM
How it was run: (§1)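 Viability was measured with CellTiter-Glo 2.0 luminescence after 72 hours of dosing at a final DMSO of typically 0.2%, and scaled between blank-well and DMSO-well means. Beforehand, cancer cell lines sat 24 hours at 37°C and 5% CO2 in 1536-well plates in 7.5 μl DMEM/F12 or RPMI with 10% FBS. A non-linear mixed effects model fitted two-parameter logistic curves to the dose responses. The single-agent IC50 comes from these fits.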

AZD5363 = compound: C1CN(CCC1(C(=O)N[C@@H](CCO)C2=CC=C(C=C2)Cl)N)C3=NC=NC4=C3C=CN4 [AZD5363]; details: max 10 µM
How it was run: as §1

AZD1775 = compound: C=CCn1c(=O)c2cnc(Nc3ccc(N4CCN(C)CC4)cc3)nc2n1-c1cccc(C(C)(C)O)n1 [AZD1775]; details: max 3 µM
How it was run: as §1

Trametinib = compound: CC(=O)Nc1cccc(-n2c(=O)n(C3CC3)c(=O)c3c(Nc4ccc(I)cc4F)n(C)c(=O)c(C)c32)c1 [Trametinib]; details: max 1 µM
How it was run: as §1

Paclitaxel = compound: CC(=O)O[C@H]1C(=O)[C@@]2(C)[C@H]([C@H](OC(=O)c3ccccc3)[C@]3(O)C[C@H](OC(=O)[C@H](O)[C@@H](NC(=O)c4ccccc4)c4ccccc4)C(C)=C1C3(C)C)[C@]1(OC(C)=O)CO[C@@H]1C[C@@H]2O [Paclitaxel]; details: max 3 µM
How it was run: as §1

Palbociclib = compound: CC(=O)c1c(C)c2cnc(Nc3ccc(N4CCNCC4)cn3)nc2n(C2CCCC2)c1=O [Palbociclib]; details: max 10 µM
How it was run: as §1

AZD1390 = compound: CC(C)n1c(=O)n(C)c2cnc3cc(F)c(-c4ccc(OCCCN5CCCCC5)nc4)cc3c21 [AZD1390]; details: max 0.3 µM
How it was run: as §1

Venetoclax = compound: CC1(C)CCC(CN2CCN(c3ccc(C(=O)NS(=O)(=O)c4ccc(NCC5CCOCC5)c([N+](=O)[O-])c4)c(Oc4cnc5[nH]ccc5c4)c3)CC2)=C(c2ccc(Cl)cc2)C1 [Venetoclax]; details: max 1 µM
How it was run: as §1

Dasatinib = compound: CC1=C(C(=CC=C1)Cl)NC(=O)C2=CN=C(S2)NC3=CC(=NC(=N3)C)N4CCN(CC4)CCO [Dasatinib]; details: max 2 µM
How it was run: as §1

SG3199 = compound: CC1=CN2[C@@H](C1)C=NC3=CC(=C(C=C3C2=O)OC)OCCCCCOC4=C(C=C5C(=C4)N=C[C@@H]6CC(=CN6C5=O)C)OC [SG3199]; details: max 0.001 µM
How it was run: as §1

AZD2811 = compound: CCN(CCO)CCCOc1ccc2c(Nc3cc(CC(=O)Nc4cccc(F)c4)[nH]n3)ncnc2c1 [AZD2811]; details: max 1 µM
How it was run: as §1

SN-38 = compound: CCc1c2c(nc3ccc(O)cc13)-c1cc3c(c(=O)n1C2)COC(=O)[C@]3(O)CC [SN-38]; details: max 0.3 µM
How it was run: as §1

AZD0156 = compound: CN(C)CCCOc1ccc(-c2ccc3ncc4c(c3c2)n(C2CCOCC2)c(=O)n4C)cn1 [AZD0156]; details: max 3 µM
How it was run: as §1

AZD4320 = compound: CN(CC[C@H](CSC1=CC=CC=C1)NC2=C(C=C(C=C2)S(=O)(=O)NC(=O)C3=CC=C(C=C3)N4CCC(CC4)[C@H](C5=CC=CC=C5C6=CC=C(C=C6)Cl)O)S(=O)(=O)C(F)(F)F)CCO [AZD4320]; details: max 1 µM
How it was run: as §1

Alisertib = compound: COc1cc(Nc2ncc3c(n2)-c2ccc(Cl)cc2C(c2c(F)cccc2OC)=NC3)ccc1C(=O)O [Alisertib]; details: max 10 µM
How it was run: as §1

Etoposide = compound: COc1cc([C@@H]2c3cc4c(cc3[C@@H](O[C@@H]3O[C@@H]5CO[C@@H](C)O[C@H]5[C@H](O)[C@H]3O)[C@H]3COC(=O)[C@H]23)OCO4)cc(OC)c1O [Etoposide]; details: max 10 µM
How it was run: as §1

Gefitinib = compound: COc1cc2ncnc(Nc3ccc(F)c(Cl)c3)c2cc1OCCCN1CCOCC1 [Gefitinib]; details: max 10 µM
How it was run: as §1

Prexasertib = compound: COc1cccc(OCCCN)c1-c1cc(Nc2cnc(C#N)cn2)n[nH]1 [Prexasertib]; details: max 1 µM
How it was run: as §1

Doxorubicin = compound: COc1cccc2c1C(=O)c1c(O)c3c(c(O)c1C2=O)C[C@@](O)(C(=O)CO)C[C@@H]3O[C@H]1C[C@H](N)[C@H](O)[C@H](C)O1 [Doxorubicin]; details: max 1 µM
How it was run: as §1

AZD5153 = compound: COc1nnc2ccc(N3CCC(c4ccc(OCCN5CCN(C)C(=O)[C@H]5C)cc4)CC3)nn12 [AZD5153]; details: max 1 µM
How it was run: as §1

Lapatinib = compound: CS(=O)(=O)CCNCc1ccc(-c2ccc3ncnc(Nc4ccc(OCc5cccc(F)c5)c(Cl)c4)c3c2)o1 [Lapatinib]; details: max 10 µM
How it was run: as §1

AZD8186 = compound: C[C@@H](Nc1cc(F)cc(F)c1)c1cc(C(=O)N(C)C)cc2c(=O)cc(N3CCOCC3)oc12 [AZD8186]
How it was run: as §1

Crizotinib = compound: C[C@@H](Oc1cc(-c2cnn(C3CCNCC3)c2)cnc1N)c1c(Cl)ccc(F)c1Cl [Crizotinib]; details: max 10 µM
How it was run: as §1

Savolitinib = compound: C[C@@H](c1ccc2nccn2c1)n1nnc2ncc(-c3cnn(C)c3)nc21 [Savolitinib]; details: max 1 µM
How it was run: as §1

AZD6738 = compound: C[C@@H]1COCCN1C2=NC(=NC(=C2)C3(CC3)[S@](=N)(=O)C)C4=C5C=CNC5=NC=C4 [AZD6738]; details: max 10 µM
How it was run: as §1

AZD5991 = compound: Cc1c2c(nn1C)CSCc1cc(n(C)n1)CSc1cc(c3ccccc3c1)OCCCc1c(C(=O)O)n(C)c3c-2c(Cl)ccc13 [AZD5991]; details: max 1 µM
How it was run: as §1

AZD7648 = compound: Cc1cc2ncnn2cc1Nc1ncc2c(n1)n(C1CCOCC1)c(=O)n2C [AZD7648]; details: max 10 µM
How it was run: as §1

Taselisib = compound: Cc1nc(-c2cn3c(n2)-c2ccc(-c4cnn(C(C)(C)C(N)=O)c4)cc2OCC3)n(C(C)C)n1 [Taselisib]; details: max 10 µM
How it was run: as §1

Selumetinib = compound: Cn1cnc2c(F)c(Nc3ccc(Br)cc3Cl)c(C(=O)NOCCO)cc21 [Selumetinib]; details: max 10 µM
How it was run: as §1

SRA737 = compound: N#Cc1cnc(Nc2cc(NC[C@H]3CNCCO3)c(C(F)(F)F)cn2)cn1 [SRA737]; details: max 10 µM
How it was run: as §1

MK-2206 = compound: NC1(c2ccc(-c3nc4ccn5c(=O)[nH]nc5c4cc3-c3ccccc3)cc2)CCC1 [MK-2206]; details: max 10 µM
How it was run: as §1

Gemcitabine = compound: Nc1ccn([C@@H]2O[C@H](CO)[C@@H](O)C2(F)F)c(=O)n1 [Gemcitabine]; details: max 0.3 µM
How it was run: as §1

[1] = compound: O=C(Nc1ccc2[nH]nc(-c3ccncc3)c2c1)[C@@H]1CCN(CC(=O)N2CCN(c3ccc(-c4ncccn4)cc3)CC2)C1; details: max 5 µM
How it was run: as §1

Olaparib = compound: O=C(c1cc(Cc2n[nH]c(=O)c3ccccc23)ccc1F)N1CCN(C(=O)C2CC2)CC1 [Olaparib]; details: max 10 µM
How it was run: as §1

5-Fluorouracil = compound: O=c1[nH]cc(F)c(=O)[nH]1 [5-Fluorouracil]; details: max 20 µM
How it was run: as §1

Capivasertib = compound: C1CN(CCC1(C(=O)N[C@@H](CCO)C2=CC=C(C=C2)Cl)N)C3=NC=NC4=C3C=CN4 [Capivasertib]; details: max 10 µM
How it was run: as §1

Cell Line	IC50, cell viability 72 h (Carboplatin) [nM]	IC50, cell viability 72 h (AZD5363) [nM]	IC50, cell viability 72 h (AZD1775) [nM]	IC50, cell viability 72 h (Trametinib) [nM]	IC50, cell viability 72 h (Paclitaxel) [nM]	IC50, cell viability 72 h (Palbociclib) [nM]	IC50, cell viability 72 h (AZD1390) [nM]	IC50, cell viability 72 h (Venetoclax) [nM]	IC50, cell viability 72 h (Dasatinib) [nM]	IC50, cell viability 72 h (SG3199) [nM]	IC50, cell viability 72 h (AZD2811) [nM]	IC50, cell viability 72 h (SN-38) [nM]	IC50, cell viability 72 h (AZD0156) [nM]	IC50, cell viability 72 h (AZD4320) [nM]	IC50, cell viability 72 h (Alisertib) [nM]	IC50, cell viability 72 h (Etoposide) [nM]	IC50, cell viability 72 h (Gefitinib) [nM]	IC50, cell viability 72 h (Prexasertib) [nM]	IC50, cell viability 72 h (Doxorubicin) [nM]	IC50, cell viability 72 h (AZD5153) [nM]	IC50, cell viability 72 h (Lapatinib) [nM]	IC50, cell viability 72 h (AZD8186; max 10 µM) [nM]	IC50, cell viability 72 h (Crizotinib) [nM]	IC50, cell viability 72 h (Savolitinib) [nM]	IC50, cell viability 72 h (AZD6738) [nM]	IC50, cell viability 72 h (AZD5991) [nM]	IC50, cell viability 72 h (AZD7648) [nM]	IC50, cell viability 72 h (Taselisib) [nM]	IC50, cell viability 72 h (Selumetinib) [nM]	IC50, cell viability 72 h (SRA737) [nM]	IC50, cell viability 72 h (MK-2206) [nM]	IC50, cell viability 72 h (Gemcitabine) [nM]	IC50, cell viability 72 h [1] [nM]	IC50, cell viability 72 h (Olaparib) [nM]	IC50, cell viability 72 h (5-Fluorouracil) [nM]	IC50, cell viability 72 h (Capivasertib) [nM]	IC50, cell viability 72 h (AZD8186; max 3 µM) [nM]
A375 (Melanoma)	> 10000	> 10000	813	12.6	42	> 10000	> 300	> 1000	> 2000	> 1	> 1000	7.4	> 3000	> 1000	8150	2610	> 10000	210	265	> 1000	> 10000	> 10000	> 10000	> 1000	9240	> 1000	> 10000	> 10000	693	> 10000	> 10000	9.74	538	> 10000	> 20000	–	–
JJN-3 (Plasma Cell Myeloma)	–	–	654	> 1000	–	> 10000	> 300	> 1000	> 2000	> 1	> 1000	163	> 3000	866	> 10000	–	> 10000	27.4	994	47.6	> 10000	–	> 10000	> 1000	5740	49.5	> 10000	> 10000	> 10000	–	> 10000	–	–	> 10000	–	> 10000	> 3000
NCI-H835 (Other Solid Carcinomas)	> 10000	> 10000	1100	> 1000	2770	> 10000	> 300	> 1000	> 2000	> 1	> 1000	> 300	> 3000	218	–	> 10000	> 10000	> 1000	> 1000	> 1000	> 10000	> 10000	9990	> 1000	> 10000	> 1000	> 10000	5250	> 10000	> 10000	> 10000	> 300	> 5000	> 10000	> 20000	–	–
NCI-H1944 (Lung Adenocarcinoma)	–	–	839	733	–	> 10000	> 300	> 1000	> 2000	> 1	> 1000	134	> 3000	> 1000	4870	–	> 10000	134	> 1000	491	> 10000	–	> 10000	> 1000	3980	> 1000	> 10000	1600	> 10000	–	> 10000	–	–	> 10000	–	7930	> 3000
OCI-M1 (Acute Myeloid Leukemia)	–	–	426	35.4	–	9530	> 300	> 1000	> 2000	> 1	> 1000	13.4	> 3000	131	516	–	> 10000	18.6	443	16.2	> 10000	–	1400	> 1000	657	> 1000	> 10000	> 10000	1810	–	> 10000	–	–	> 10000	–	> 10000	> 3000
RS4-11 (B-Lymphoblastic Leukemia)	–	–	268	> 1000	–	4980	> 300	5.79	> 2000	> 1	8.84	4.79	> 3000	3.82	32.2	–	> 10000	16.7	460	191	> 10000	–	1520	> 1000	1390	723	> 10000	7520	> 10000	–	–	–	–	> 10000	–	9400	> 3000
